Values quoted from earlier work, collected in US20140032198A1, “APPLICATION OF MULTIDIMENSIONAL MATRIX FOR DRUG MOLECULAS DESIGN AND THE METHODOLOGIES FOR DRUG MOLECULAR DESIGN” (priority 2011, published 2014).

Conditions: qualitative comparison within captopril series, historical data

| Molecule | toxicity and side effects profiles |
| --- | --- |
| Ramipril | best toxicity and side effects profiles |
| Lisinopril | relatively weaker |
| CCC(=O)O[C@@H](O[P@](=O)(CCCCc1ccccc1)CC(=O)N1C[C@H](C2CCCCC2)C[C@H]1C(=O)O)C(C)C [Fosinopril] | relatively weaker |
| CCOC(=O)[C@H](CCc1ccccc1)N[C@@H](C)C(=O)N1Cc2ccccc2C[C@H]1C(=O)O [Quinapril] | relatively weaker |
| Benazepril | relatively weaker |
